# Patent US8318773B2, “Isoindoline compounds and methods of their use” (Celgene Corporation, priority 2008, dated 2012)
row,SMILES,melting point
1,Cc1ccc(NC(=N)NCc2ccc3c(c2)CN(C2CCC(=O)NC2=O)C3=O)cc1Cl.Cl (stereo not drawn),> 400 °C
2,"CC(=O)Nc1ccc(NC(=O)NCc2ccc3c(c2)CN(C2CCC(=O)NC2=O)C3=O)cc1 (stereo not drawn) [Example 5.13, N-(4-{3-[2-(2,6-Dioxo-piperidin-3-yl)-1-oxo-2,3-dihydro-1H-isoindol-5-ylmethyl]-ureido}-phenyl)-acetamide]",265 to 267 °C
3,"Cc1ccc(N/C(=N\C#N)NCc2ccc3c(c2)CN(C2CCC(=O)NC2=O)C3=O)cc1Cl (stereo not drawn) [Example 5.30, N″-(3-Chloro-4-methyl-phenyl)-N′-[2-(2,6-dioxo-piperidin-3-yl)-1-oxo-2,3-dihydro-1H-isoindol-5-ylmethyl]-N-cyano-guanidine]",325 to 327 °C
4,"O=C1CCC(N2Cc3cc(CNC(=O)Nc4ccc(-c5ncc[nH]5)cc4)ccc3C2=O)C(=O)N1 (stereo not drawn) [Example 5.31, 1-[2-(2,6-Dioxo-piperidin-3-yl)-1-oxo-2,3-dihydro-1H-isoindol-5-ylmethyl]-3-[4-(1H-imidazol-2-yl)-phenyl]-urea]",190 to 192 °C

# Other lines, results leading:
row,melting point,SMILES
1,275 to 277 °C,"O=C1CCC(N2Cc3cc(CNC(=O)Nc4ccc(Cl)c(-c5nc6ccccc6[nH]5)c4)ccc3C2=O)C(=O)N1 (stereo not drawn) [Example 5.32, 1-[3-(1H-Benzoimidazol-2-yl)-4-chloro-phenyl]-3-[2-(2,6-dioxo-piperidin-3-yl)-1-oxo-2,3-dihydro-1H-isoindol-5-ylmethyl]-urea]"
2,195 to 197 °C,"NC(=O)[C@H]1CC[C@@H](NC(=O)NCc2ccc3c(c2)CN(C2CCC(=O)NC2=O)C3=O)CC1 (stereo partly drawn) [Example 5.43, 4-{3-[2-(2,6-Dioxo-piperidin-3-yl)-1-oxo-2,3-dihydro-1H-isoindol-5-ylmethyl]-ureido}-cyclohexanecarboxylic acid amide]"
3,230 to 232 °C,"CC(C)(C)OC(=O)N1CCc2cc(NC(=O)NCc3ccc4c(c3)CN(C3CCC(=O)NC3=O)C4=O)ccc2C1 (stereo not drawn) [Example 5.46, 6-{3-[2-(2,6-Dioxo-piperidin-3-yl)-1-oxo-2,3-dihydro-1H-isoindol-5-ylmethyl]-ureido}-3,4-dihydro-1H-isoquinoline-2-carboxylic acid tert-butyl ester]"
4,200 to 202 °C,"CC(NC(=O)NCc1ccc2c(c1)CN(C1CCC(=O)NC1=O)C2=O)c1ccc(Cl)c(Cl)c1 (stereo not drawn) [Example 5.60, 1-[1-(3,4-Dichloro-phenyl)-ethyl]-3-[2-(2,6-dioxo-piperidin-3-yl)-1-oxo-2,3-dihydro-1H-isoindol-5-ylmethyl]-urea]"
5,188 to 190 °C,"COCCOCCOc1ccc(NC(=O)NCc2ccc3c(c2)CN(C2CCC(=O)NC2=O)C3=O)cc1Cl (stereo not drawn) [Example 5.61, 1-(3-Chloro-4-(2-(2-methoxyethoxy)ethoxy)phenyl)-3-((2-(2,6-dioxopiperidin-3-yl)-1-oxoisoindolin-5-yl)methyl)urea]"
